Data as given in US6784192B2, “Piperidine compound and pharmaceutical composition thereof” (Eisai Co., Ltd., priority 2000, dated 2004).
Where a name gives a salt, the structure may show the parent alone. Read-outs that look alike come from different tables or passages of the source.

Assays:
[1] = system: sodium channel of synaptosome of rat cerebral cortex; test: Assessment for sodium channel of synaptosome of rat cerebral cortex (SBFI); type: cell-based
Experimental: In the present experiment the synaptosome which was extracted from rat cerebral cortex was used. After sodium ion-sensitive dye, SBFI was taken in, the synaptosome was reacted with the respective tested substances (3 samples in 6 concentrations) at room temperature for 15 minutes in a 96 wells plate. The sodium channel inhibitory activity was measured using FDSS2000 of HAMAMATSU Photonics Co., Ltd. The sodium ion concentration in the synaptosome was measured once per 5 seconds using the fluorescent intensity of SBFI as an index. After measuring the control value 10 times, Veratridine was added so that the final concentration was 20 μM, and further measurement was carried out 30times. The inhibitory activity value of the tested substances for sodium channel was calculated, setting the action only by a measurement solution without the tested substance, as 0%, and the inhibitory activity caused by 2 μM of TTX which was a positive control, as 100%, as an inhibitory activity value corresponding to this action, using the increase of the fluorescent intensity of SBFI to the control value which was generated after addition of Veratridine, as an index.

[2] = system: spontaneous nerve discharge of cut left saphenous nerve; test: Suppression of spontaneous nerve discharge (ectopic firing); type: in vivo; conditions: Test Example 5, rat, intravenous catheter, urethane anesthetized; for ED50: read-out: Ectopic Firing (ID50 mg/kg)
Experimental: In order to assess the suppression action for spontaneous nerve discharge, the experiment was carried out by a method below, referring to “Burchiel, K J., Exp. Nuerol., 102, 249-253 (1988)”. Namely, for the rat in which spontaneous discharge was observed, the left saphenous nerve was cut off nearby knee articulatio before 1 week or more, and around 3 mm of the nerve was cut off so that the nerve was not adhered again. The left saphenous nerve was exposed under urethane (1 g/kg body weight) anesthetized, and about 1 cm of adjacent portion from the cut portion was peeled from a periphery tissue. Further, a catheter was preliminarily inserted in the vein of a right neck for administration of a compound. The peeled nerve was mounted on a platinum hook electrode, and liquid paraffin was put on it so that the nerve was not dried. The electrode was connected with a fine electrode amplifier, and the value was recorded on a computer through an AD/converter from an oscilloscope. The nerve discharge recorded was assessed by the number of ignition per 10 seconds using an analysis soft (AcqKnowledge).

rabbit atrial muscle = test: Assessment for rabbit atrial muscle, Vmax; conditions: Test Example 4, right atrial muscle, stimulation frequency 4 Hz, 15 minutes
Experimental: The specimen of the right atrial muscle which was enucleated from rabbit was used for the present experiment. The electrical stimulation was applied for the right atrial muscle which was enucleated, under conditions: a stimulation duration of 1 mess; a stimulation frequency of 4 Hz; and a stimulation intensity of about 1.2-fold of the threshold. The stimulation was provided from 30 minutes to 60 minutes before start of the experiment, and the condition of the specimen was stabilized. The action potential was recorded according to a glass microelectrode method. 3 M KCl was charged in the glass electrode, inserted in the specimen of the right atrium, and the action potential was recorded. Vmax is the parameter of the maximum upstroke slope of the action potential recorded, and a value which was automatically calculated by an action potential analysis soft (CAPA 1.23 manufactured by Physiotec. Co., Ltd.) was used. After the action potential in a normal Tyrode solution was recorded as control, the action potential after flowing the tested substances at respective concentrations for 15 minutes was recorded. The action of the tested substance for Vmax was calculated as an IC50 value.

[3] = read-out: SBFI (IC50 μM); Test Example 3; Veratridine 20 μM; 2 μM TTX as 100%
[4] = Test Example 3; Veratridine 20 μM; 2 μM TTX as 100%; read-out: SBFI (IC50 μM)

SMILES	IC50 [1, 3]	ED50 [2]	IC50 (rabbit atrial muscle; Oryctolagus cuniculus, 0.25 h)	IC50 [1, 4]	Ectopic Firing (ID50 mg/kg) [2]	IC50 (rabbit atrial muscle)
Cc1ccccc1CCC1CCN(Cc2ccc[nH]c2=O)CC1 [Example 285, 1-[(2-Oxo-1,2-dihydro-3-pyridinyl)methyl]-4-[2-(2-methylphenyl)ethyl]piperidine]	7.7 µM	0.13 mg/kg	2.9 µM			
O=c1[nH]cc(Br)cc1CN1CCC(CCc2cccc3c2OCO3)CC1 [Example 291, 1-[(5-Bromo-2-oxo-1,2-dihydro-3-pyridinyl)methyl]-4-[2-[2,3-(methylenedioxy)phenyl]ethyl]piperidine]				14.5 µM	0.1 mg/kg	6 µM
O=c1[nH]cc(Cl)cc1CN1CCC(CCc2ccccc2OCc2ccccc2)CC1 [Example 299]	5.3 µM	0.1 mg/kg	50 µM			
O=c1[nH]cc(Cl)cc1CN1CCC(CCc2ccccc2OCC2CCCCC2)CC1 [Example 301, 1-[(5-Chloro-2-oxo-1,2-dihydro-3-pyridinyl)methyl]-4-[2-[2-(cyclohexylmethyloxy)phenyl]ethyl]piperidine]	6.5 µM	0.18 mg/kg	100 µM			
O=C(O)C(=O)O.O=c1[nH]cccc1CN1CCC(CCc2ccccc2OCC2CCCCC2)CC1 [Example 302, 1-[(2-Oxo-1,2-dihydro-3-pyridinyl)methyl]-4-[2-[2-(cyclohexylmethyloxy)phenyl]ethyl]piperidine oxalate]	1.2 µM	0.14 mg/kg	22.5 µM			
O=C(O)C(=O)O.O=c1[nH]cccc1CN1CCC(CCc2ccccc2CCc2ccccc2)CC1 [Example 306, 1-[(2-Oxo-1,2-dihydro-3-pyridinyl)methyl]-4-[[2-(2-phenylethyl)phenyl]ethyl]piperidine oxalate]	1.3 µM	0.17 mg/kg	1.9 µM			
CC(C)COc1ccccc1CCC1CCN(Cc2ccc[nH]c2=O)CC1.O=C(O)C(=O)O [Example 308, 1-[(2-Oxo-1,2-dihydro-3-pyridinyl)methyl]-4-[2-[2-(isobutyloxy)phenyl]ethyl]piperidine oxalate]	0.5 µM	0.22 mg/kg	3.1 µM			
O=C(O)C(=O)O.O=c1[nH]cccc1CN1CCC(CCc2ccccc2OCCc2ccccc2)CC1 [Example 309, 1-[(2-Oxo-1,2-dihydro-3-pyridinyl)methyl]-4-[2-[2-(2-phenylethoxy)phenyl]ethyl]piperidine oxalate]	1 µM	0.19 mg/kg	6.3 µM			
O=C(O)C(=O)O.O=c1[nH]cccc1CN1CCC(CCc2ccccc2OCC2CCCC2)CC1 [Example 311, 1-[(2-Oxo-1,2-dihydro-3-pyridinyl)methyl]-4-[2-[2-(cyclopentylmethyloxy)phenyl]ethyl]piperidine oxalate]	0.7 µM	0.13 mg/kg	2 µM			
Cl.Cl.O=c1[nH]cccc1CN1CCC(CCc2ccccc2NCc2ccccc2)CC1 [Example 313, 1-[(2-Oxo-1,2-dihydro-3-pyridinyl)methyl]-4-[2-[2-(benzylamino)phenyl]ethyl]piperidine dihydrochloride]	1.5 µM	0.16 mg/kg	8.6 µM			
O=c1[nH]cc(Cl)cc1CN1CCC(CCc2cccc3c2OCO3)CC1 [Example 319]	10.2 µM	0.082 mg/kg	10 µM			
O=c1[nH]cc(Cl)cc1CN1CCC(CCc2ccccc2F)CC1 [Example 320]	17 µM	0.041 mg/kg	14.8 µM			
CC(C)COc1ccccc1CCC1CCN(Cc2cc(Cl)c[nH]c2=O)CC1.O=C(O)C(=O)O [Example 323, 1-[(5-Chloro-2-oxo-1,2-dihydro-3-pyridinyl)methyl]-4-[2-[2-(isobutyloxy)phenyl]ethyl]piperidine oxalate]	4.8 µM	0.083 mg/kg	3.9 µM			
O=C(O)C(=O)O.O=c1[nH]cccc1CN1CCC(CCc2ccccc2OC(F)(F)F)CC1 [Example 326, 1-[(2-Oxo-1,2-dihydro-3-pyridinyl)methyl]-4-[2-[2-(trifluoromethoxy)phenyl]ethyl]piperidine oxalate]	1.9 µM	0.18 mg/kg	3.98 µM			
O=c1[nH]cccc1CN1CCC(C=C(c2ccccc2)c2ccccc2)CC1 [Example 333, 1-[(2-Oxo-1,2-dihydro-3-pyridinyl)methyl]-4-(2,2-diphenyl-1-ethenyl)piperidine]	5.4 µM	0.15 mg/kg	4.9 µM			
O=C(O)C(=O)O.O=c1[nH]cccc1CN1CCC(/C=C/c2ccccc2OCc2ccccc2)CC1 [Example 338, 1-[(2-Oxo-1,2-dihydro-3-pyridinyl)methyl]-4-[(E)-2-[2-(benzyloxy)phenyl]-1-ethenyl]piperidine oxalate]	1.2 µM	0.19 mg/kg	11.4 µM			
O=c1[nH]cc(Cl)cc1CN1CCC(COc2ccc(F)cc2F)CC1 [Example 370, 1-[(5-Chloro-2-oxo-1,2-dihydro-3-pyridinyl)methyl]-4-[(2,4-difluorophenoxy)methyl]piperidine]	33.6 µM	0.081 mg/kg	45 µM			
O=c1[nH]cc(Cl)cc1CN1CCC(COc2cc(F)ccc2F)CC1 [Example 372, 1-[(5-Chloro-2-oxo-1,2-dihydro-3-pyridinyl)methyl]-4-[(2,5-difluorophenoxy)methyl]piperidine]	21.8 µM	0.11 mg/kg	9.3 µM			
O=c1[nH]cccc1CN1CCC(COc2ccccc2Cl)CC1 [Example 376, 1-[(2-Oxo-1,2-dihydro-3-pyridinyl)methyl]-4-[(2-chlorophenoxy)methyl]piperidine]	20.3 µM	0.07 mg/kg				
O=c1[nH]c2ccccc2cc1CN1CCC(CCc2cccc3c2OCO3)CC1 [Example 380, 1-[(2-Oxo-1,2-dihydro-3-quinolinyl)methyl]-4-[2-[2,3-(methylenedioxy)phenyl]ethyl]piperidine]				3.9 µM	0.1 mg/kg	8.6 µM
O=c1[nH]c2ccccc2cc1CN1CCC(CCc2cccc(-c3ccccc3)c2)CC1 [Example 381, 1-[(2-Oxo-1,2-dihydro-3-quinolinyl)methyl]-4-[2-(3-(phenylphenyl)ethyl]piperidine oxalate]	3 µM	0.56 mg/kg	100 µM			
